According to US20160206539A1, “COMPOSITION FOR SKIN AND SCALP HEALTH” (CONOPCO, INC., d/b/a UNILEVER, priority 2013, published 2016):

Legend:
Xanthomonas oryzae = details: dilute solution sprayed on rice inoculated with Xanthomonas oryzae; cited from earlier work
[1] = system: Neonatal Human Epidermal Melanocytes (NHEM) and HaCat; test: Reduction in melanin content assay (MCA) in melanocyte/keratinocyte co-culture; details: 72 hours treatment, relative to vehicle control

Compound: C=C1C(=O)OC2C[C@]3(C)C(CC12)C(=C)C(O)C[C@H]3O (some centres unmarked) [Granilin]
- Decrease of infection on the leaves (Xanthomonas oryzae): about 75%
- Reduction in melanin content ([1]; 0.0005 wt % active (Example 1)): 30.4%
- Reduction in melanin content ([1]; 0.00075 wt % active (Example 2)): 47.6%
- Reduction in melanin content ([1]; 0.001 wt % active (Example 3)): 52.3%

Compound: CCc1ccc(O)cc1O [Ethyl resorcinol, reference compound]
- Reduction in melanin content ([1]; 0.00014 wt % active (Example A)): 21.5%
